Test results: patent US5360790A, “Method and formulations for the therapy of acute renal failure” (The Regents of the University of Michigan, priority 1993, dated 1994)

Experiments:
Assay type in all cases: in vivo, rat
renal tubule cells [1] = experiment: Histoautoradiography of 3H-thymidine labeled kidney cells after renal ischemia
Text: To localize and identify the cells incorporating the radiolabeled thymidine within the kidney, histoautoradiography of kidney samples was also accomplished. For quantitative evaluation, a computerized operator-interactive system was used. Sections were examined at 276 magnification, and 10-15 fields were counted in the cortex and outer and inner stripes of the outer medulla in each section for an individual animal. The cell type of the labeled cells was identified as either tubular or interstitial.
At varying time points after reperfusion, measurements of ^3 H-thymidine incorporation into the kidneys and BUN, and serum creatinine levels were determined.

renal tubule cells [2] = experiment: Histoautoradiography of [3H] thymidine labeled kidney cells after HgCl2
Protocol: (§1) At time intervals of 24, 30, 48, and 72 hours after toxin administration, [^3 H] thymidine incorporation into renal cortex, as well as blood urea nitrogen (BUN) and serum creatinine levels, were determined with methods known and practiced in the art. To obtain a complete time course for the BUN and serum creatinine levels, some animals were allowed to recover for as long as 12 days after HgCl2 administration, and blood samples were obtained daily for BUN and serum creatinine levels.
Histoautoradiographic studies were performed to determine the type of cells labeled with [^3 H] thymidine after HgCl2 exposure. Kidney sections from rats at 48 or 72 h after toxic administration were used for histoautoradiographic analysis. Labeling was confined to the nuclei. On average, 97.9% of the labeled cells were tubule cells, and 2.1% of the labeled cells were interstitial cells in the 60 examined fields. In control rats undergoing sham injection, 98.4% of labeled cells were tubule, and 1.6% were interstitial in 90 examined fields.

renal tubule cells [3] = experiment: [3H] thymidine incorporation into renal cortex after HgCl2 (nephrotoxic acute renal failure); details: for [3H] Thymidine Incorporation: EGF 20 μg sc 2-4 h after nephrotoxin
Protocol: as §1

renal tubule cells [4] = experiment: 3H-thymidine incorporation into kidneys after bilateral renal artery clamping (ischemic acute renal failure)
Protocol: (§2) Sprague Dawley rats (250-325 g) were anesthetized with a short-acting barbiturate, the abdominal cavity was exposed, and both left and right renal arteries were identified and clamped for 30 minutes. The clamps were released and perfusion to the kidneys reestablished. At time intervals of 24, 48, and 72 hours after ischemia and reperfusion, ^3 H-thymidine incorporation into kidneys, as well as blood urea nitrogen (BUN) and serum creatinine levels. To obtain a complete time course, some animals were allowed to recover for 7 days after renal ischemia and blood samples were then obtained daily for BUN or serum creatinine measurements.
(§3) This dose of EGF is substantially lower than those employed in previously reported studies that administered EGF systemically. At varying time points after reperfusion, measurements of ^3 H-thymidine incorporation into the kidneys and BUN, and serum creatinine levels were determined.

Sprague Dawley rats = experiment: BUN and serum creatinine time course after renal ischemia; details: single dose EGF within 1-1.5 hours of reperfusion after 30 minutes bilateral renal ischemia; entire 7-day period
Protocol: as §2, §3

Male Sprague-Dawley rats [5] = experiment: BUN and serum creatinine time course after HgCl2 (nephrotoxic acute renal failure)
Protocol: as §1

Male Sprague-Dawley rats [6] = experiment: Histological score of tubule cell injury after HgCl2; details: 24 h after HgCl2; n=120 fields from 3 animals; P=NS vs non-EGF-treated
Protocol: Histological grading was assessed at 24 h, a time at which the peak of HgCl2 -induced toxic renal injury occurs and just before the accelerated regeneration repair phase. At 24 h, the mean histological scores in the inner cortex and outer stripe were 2.92±0.13 and 4.70±0.07, respectively, in the nephrotoxic non-EGF-treated rats vs. scores of 3.25±0.18 and 4.65±0.08, respectively, in the nephrotoxic EGF-treated rats (n=120 fields from 3 animals in each treatment group, P=NS for both scores). At 24 h after HgCl2, extensive necrosis was present in proximal tubule segments with no difference in the degree of tubule cell necrosis observed histologically between the EGF-treated and nontreated groups receiving HgCl2.

[7] = EGF-treated postischemic rats at 24 hours
[8] = postischemic kidneys at 24 hours after EGF administration
[9] = EGF-treated rats, 48 h after HgCl2 injection, 60 fields
[10] = peak at 3 days after HgCl2 injection, EGF 20 μg sc, P<0.001 vs nontreated

epidermal growth factor [EGF]
labeled cells identified as interstitial cells (renal tubule cells [1]; [7]): 1.9% | labeled cells identified as tubule (renal tubule cells [1]; [7]): 98.1% | labeled interstitial cells, absolute number (renal tubule cells [1]; [7]): 61 | labeled tubule cells, absolute number (renal tubule cells [1]; [7]): 3,183 | distribution of labeled tubule cells: cortex (renal tubule cells [1]; [8]): 27% | distribution of labeled tubule cells: outer stripe of the outer medulla (renal tubule cells [1]; [8]): 68% | number of tubule cells incorporating [3H] thymidine (renal tubule cells [2]; 24 h after HgCl2, renal cortex and outer medulla, n=3 rats and 60 fields, P<0.02 vs nontreated): 7.5±1.8 labeled cells/field | number of labeled tubule cells (renal tubule cells [2]; 48 h after HgCl2, renal cortex and outer medulla, n=3 rats and 60 fields): 20.9±2.1 cells/field | labeled cells identified as interstitial cells (renal tubule cells [2]; [9]): 3.7% | labeled cells identified as tubule (renal tubule cells [2]; [9]): 96.3% | [3H] Thymidine Incorporation (renal tubule cells [3]; 0 h, rats given 5 mg/kg HgCl2, mean (SE 0.03 printed)): 0.12 dpm × 10^4 /mg DNA | [3H] Thymidine Incorporation (renal tubule cells [3]; 24 h after 5 mg/kg HgCl2, mean (SE 1.28 printed)): 13.81 dpm × 10^4 /mg DNA | [3H] Thymidine Incorporation (renal tubule cells [3]; 48 h after 5 mg/kg HgCl2, mean (SE 19.52 printed)): 80.52 dpm × 10^4 /mg DNA | [3H] Thymidine Incorporation (renal tubule cells [3]; 72 h after 5 mg/kg HgCl2, mean (SE 13.80 printed)): 116.24 dpm × 10^4 /mg DNA | renal thymidine incorporation compared with non-EGF-treated animals receiving the nephrotoxin (renal tubule cells [3]; single dose EGF 2 or 4 h after HgCl2, at 24, 30, 48 and 72 h): higher rates of renal thymidine incorporation | 3H-thymidine incorporation, sham ischemia (renal tubule cells [4]; EGF treatment of rats undergoing sham ischemia, P=NS, n=3): did not show any increase | renal thymidine incorporation compared with control nontreated ischemia values (renal tubule cells [4]; single dose EGF 1-1.5 hours after reperfusion, 24, 48, 72 hours of reperfusion after 30 minutes bilateral renal artery clamping): significantly increased renal thymidine incorporation | BUN levels of EGF-treated animals (Sprague Dawley rats): significantly lower | creatinine levels of EGF-treated animals (Sprague Dawley rats): significantly lower | return to near normal BUN and serum creatinine, earlier than in non-EGF-treated animals (Male Sprague-Dawley rats [5]; after HgCl2): 4 days | return to near normal BUN and serum creatinine levels (Male Sprague-Dawley rats [5]; day after HgCl2 administration): 8 days | peak BUN level (Male Sprague-Dawley rats [5]; [10]): 213 ± 23 mg/dL | peak serum creatinine level (Male Sprague-Dawley rats [5]; [10]): 6.54 ± 0.72 mg/dL | mean histological score, inner cortex (Male Sprague-Dawley rats [6]): 3.25±0.18 | mean histological score, outer stripe (Male Sprague-Dawley rats [6]): 4.65±0.08
